According to patent US20030166001A1, “Toll-like receptor 3 signaling agonists and antagonists” (priority 2001, published 2003):
In the oligonucleotide strings, read from the 5' end, every base follows the letter of its sugar. An asterisk marks phosphorothioate; unmarked linkages are phosphodiester. Other units and linkages are bracketed, terminal groups are in braces. A string of capitals states the bases alone. d = 2'-deoxy (DNA)

Tests used:
murine TLR9 [1] = molecular target: T1, murine TLR9 (Mus musculus, UniProt Q9EQU3); assay: 293 fibroblasts stably transfected with murine TLR9 and NF-κB-luciferase reporter, ODN stimulation; conditions: for EC50: read-out: EC50 (concentration of the ligand stimulus that results in 50% maximal activation), NF-κB luciferase induction, stimulated for 16 hours, ODN titrated between 10 μM and 2 nM, FIG. 6; for course of activity (EC50) curves with time: ODN with less stable diester linkages
T1 sequence (Q9EQU3 26-1032): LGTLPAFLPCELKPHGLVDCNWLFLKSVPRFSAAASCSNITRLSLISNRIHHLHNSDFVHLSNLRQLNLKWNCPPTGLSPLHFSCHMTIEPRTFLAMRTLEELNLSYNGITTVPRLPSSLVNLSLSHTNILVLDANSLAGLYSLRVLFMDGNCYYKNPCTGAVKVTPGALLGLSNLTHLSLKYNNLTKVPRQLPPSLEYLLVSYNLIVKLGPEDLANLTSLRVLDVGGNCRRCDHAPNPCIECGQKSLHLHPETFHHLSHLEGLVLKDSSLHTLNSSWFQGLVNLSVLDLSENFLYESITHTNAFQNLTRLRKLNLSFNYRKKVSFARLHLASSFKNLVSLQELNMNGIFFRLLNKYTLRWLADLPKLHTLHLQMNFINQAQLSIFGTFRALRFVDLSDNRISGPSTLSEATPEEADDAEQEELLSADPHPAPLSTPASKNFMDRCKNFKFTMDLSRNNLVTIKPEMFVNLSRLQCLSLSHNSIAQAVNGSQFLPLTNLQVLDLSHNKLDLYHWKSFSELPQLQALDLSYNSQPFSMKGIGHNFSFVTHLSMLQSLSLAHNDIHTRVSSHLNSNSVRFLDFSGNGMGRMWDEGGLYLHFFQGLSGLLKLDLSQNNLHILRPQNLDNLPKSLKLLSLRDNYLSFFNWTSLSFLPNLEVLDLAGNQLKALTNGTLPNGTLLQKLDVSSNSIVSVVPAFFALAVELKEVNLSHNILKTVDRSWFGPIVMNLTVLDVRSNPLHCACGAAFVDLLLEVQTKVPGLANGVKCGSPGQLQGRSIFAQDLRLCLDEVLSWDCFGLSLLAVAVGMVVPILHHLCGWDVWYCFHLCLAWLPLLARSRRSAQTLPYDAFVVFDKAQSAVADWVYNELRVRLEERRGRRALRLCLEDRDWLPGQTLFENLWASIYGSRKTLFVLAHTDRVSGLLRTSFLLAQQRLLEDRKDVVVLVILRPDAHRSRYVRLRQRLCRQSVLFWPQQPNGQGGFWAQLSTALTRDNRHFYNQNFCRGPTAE
Method: (§1) Human 293 fibroblast cells stably transfected with murine TLR9 and an NF-κB-luciferase reporter were stimulated for 16 hours with the following fully phosphorothioated oligodeoxynucleotides (ODN):
(§2) Concentration of the stimulus was titrated between 10 μM and 2 nM. […] EC50 is defined as the concentration of the ligand stimulus that results in 50% maximal activation.
(§3) A family of stimulation curves was determined at various times of assay incubation between 1 and 24 hours. The EC50 was determined for each ligand at each time point.

hTLR9 = molecular target: T2, hTLR9 (Homo sapiens, UniProt Q9NR96); assay: 293 fibroblasts transiently transfected with hTLR9, NF-κB-luc readout or IL-8 ELISA; type: cell-based; conditions: CpG-ODN 2006 2 μM, LPS 100 ng/ml; 8 h luciferase, 48 h IL-8; FIG. 1
T2 construct: expressed in transfected cells; host or cells: human 293 fibroblasts (ATCC CRL-1573), transient transfection by the calcium phosphate method
T2 sequence (Q9NR96 26-1032): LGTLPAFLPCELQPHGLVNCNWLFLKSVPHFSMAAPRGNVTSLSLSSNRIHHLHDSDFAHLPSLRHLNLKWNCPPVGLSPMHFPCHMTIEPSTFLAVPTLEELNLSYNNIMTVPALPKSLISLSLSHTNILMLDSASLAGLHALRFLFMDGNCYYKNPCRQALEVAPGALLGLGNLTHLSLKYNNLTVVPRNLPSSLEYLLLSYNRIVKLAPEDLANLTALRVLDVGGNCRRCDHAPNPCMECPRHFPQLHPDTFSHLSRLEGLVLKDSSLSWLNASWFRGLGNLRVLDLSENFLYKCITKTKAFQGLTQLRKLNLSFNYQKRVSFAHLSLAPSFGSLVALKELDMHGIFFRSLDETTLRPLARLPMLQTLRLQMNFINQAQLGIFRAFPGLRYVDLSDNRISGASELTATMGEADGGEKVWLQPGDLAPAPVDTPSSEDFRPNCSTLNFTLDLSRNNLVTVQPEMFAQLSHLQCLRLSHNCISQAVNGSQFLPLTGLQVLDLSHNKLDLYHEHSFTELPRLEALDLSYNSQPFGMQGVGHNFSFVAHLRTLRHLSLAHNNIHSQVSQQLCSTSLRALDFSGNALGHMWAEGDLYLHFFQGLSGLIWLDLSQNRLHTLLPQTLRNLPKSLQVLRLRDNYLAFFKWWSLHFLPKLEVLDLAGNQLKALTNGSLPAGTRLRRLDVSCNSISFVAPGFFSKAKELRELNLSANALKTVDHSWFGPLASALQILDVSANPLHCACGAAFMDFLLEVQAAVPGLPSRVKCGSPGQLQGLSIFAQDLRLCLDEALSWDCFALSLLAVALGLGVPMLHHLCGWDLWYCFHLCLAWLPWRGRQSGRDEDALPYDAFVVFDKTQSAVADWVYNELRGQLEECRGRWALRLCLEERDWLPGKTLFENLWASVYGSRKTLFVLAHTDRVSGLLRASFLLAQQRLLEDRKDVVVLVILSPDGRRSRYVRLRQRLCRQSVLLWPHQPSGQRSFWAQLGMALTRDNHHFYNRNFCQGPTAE
Text: Methods for cloning murine and human TLR9 have been described in pending U.S. patent application Ser. No. 09/954,987 and corresponding published PCT application PCT/US01/29229, both filed Sep. 17, 2001, the contents of which are incorporated by reference. Human TLR9 cDNA and murine TLR9 cDNA in pT-Adv vector (from Clonetech) were individually cloned into the expression vector pcDNA3.1(−) from Invitrogen using the EcoRI site. Utilizing a “gain of function” assay it was possible to reconstitute human TLR9 (hTLR9) and murine TLR9 (mTLR9) signaling in CpG-DNA non-responsive human 293 fibroblasts (ATCC, CRL-1573). The expression vectors mentioned above were transfected into 293 fibroblast cells using the calcium phosphate method.
Since NF-κB activation is central to the IL-1/TLR signal transduction pathway (Medzhitov R et al. (1998) Mol Cell 2:253-258 (1998); Muzio M et al. (1998) J Exp Med 187:2097-101), cells were transfected with hTLR9 or co-transfected with hTLR9 and an NF-κB-driven luciferase reporter construct. […] After stimulus with CpG-ODN (2006, 2 μM, […], SEQ ID NO:15), GpC-ODN (2006-GC, 2 μM, […], SEQ ID NO:16), LPS (100 ng/ml) or media, NF-κB activation by luciferase readout (8 h, FIG. 1A) or IL-8 production by ELISA (48 h, FIG. 1B) were monitored. […]

murine TLR9 [2] = molecular target: T1, murine TLR9
Method: as §1, §2, §3

[3] = assay incubation between 1 and 24 hours, FIG. 7

## T*C*C*A*T*G*A*C*G*T*T*T*T*T (dT*dC*dC*dA*dT*dG*dA*dC*dG*dT*dT*dT*dT*dT) [ODN 5897]
Murine TLR9 [1]
  EC50: 1220 nM

## T*C*C*A*T*G*A*C_G_T*T*T*T*T*G*A*T_G*T*T [ODN 5902]
Murine TLR9 [1]; [3]
  course of activity (EC50) curves with time: turn upward with time

## T*C*G*T*C*G*T*T*T*T*G*T*C*G*T*T*T*T*G*T*C*G*T*T [ODN 2006]
hTLR9
  response of cells expressing hTLR9 (NF-κB activation by luciferase readout, IL-8 production by ELISA): responded

## T*C_G*T*C_G*T*T*T*T_G*T*C_G*T*T*T*T*G*T*C_G*T*T [ODN 5746]
Murine TLR9 [1]; [3]
  course of activity (EC50) curves with time: turn upward with time

## T*C*G*T*C*G*T*T*T*T_G_T_C_G_T*T*T*T*G*T*C*G*T*T [ODN 5497]
Murine TLR9 [1]; [3]
  course of activity (EC50) curves with time: turn upward with time

## lipopolysaccharide [LPS]
hTLR9
  response of cells expressing hTLR9 (NF-κB activation by luciferase readout, IL-8 production by ELISA): not

## T*C*C*A*T*G*A*C*G*T*T*T*T*T*G*A*T*G*T*T (TCCATGACGTTTTTGATGTT; chemistry not given here) [ODN 5890]
Murine TLR9 [2]
  maximal activity (maximal fold induction) versus time: less efficient at delivering high activity
Murine TLR9 [1]; [3]
  affinity of ligand/receptor interaction from EC50 versus time curves: higher affinity
Murine TLR9 [1]
  EC50: 42 nM
